{
  "source": "patent USRE38984E1",
  "about": "“Antifungal combination therapy” (Merck & Co., Inc., priority 1996, dated 2006)",
  "key": {"A. fumigatus [1]": {"test_system": "A. fumigatus", "test": "drug interaction and efficacy study against disseminated aspergillosis", "format": "in vivo", "conditions": "Compound I 0.008 mg/kg combined with AmB 0.12 mg/kg, over the compounds administered alone", "description": "(§1) Drug interaction and efficacy studies with Compound I combined with either AmB or FCZ against disseminated candidiasis, aspergillosis and cryptococcosis were performed."}, "C. albicans [2]": {"test_system": "C. albicans", "test": "drug interaction and efficacy study against disseminated candidiasis", "format": "in vivo", "conditions": "Compound I 0.03 mg/kg and lower plus AmB 0.03 mg/kg and lower", "description": "as §1"}, "C. neoformans [3]": {"test_system": "C. neoformans", "test": "drug interaction and efficacy study against cryptococcosis in mice", "format": "in vivo", "description": "as §1"}, "C. neoformans [4]": {"test_system": "C. neoformans", "test": "broth microdilution antifungal susceptibility / drug combination testing in vitro (NCCLS M27-T)", "format": "cell-based", "excerpt": "(§2) This has been shown using a broth microdilution technique which is the standard method for antifungal susceptibility testing proposed by the NCCLS (protocol M27-T). Sub-inhibitory concentrations of Compound I in combination with sub-inhibitory concentrations of AmB and sub-inhibitory concentrations of FCZ were employed. The minimal inhibitory concentrations (MICS) for AmB and Compound I were defined as the lowest drug concentration at which there was an absence of growth.\n(§3) Additional drug combination testing in vitro was performed to evaluate combinations of Compound I with AmB and FCZ against clinical isolates. There was no antagonism evident between Compound I and AmB against C. albicans, A. fumigatus and C. neoformans. Fractional inhibitory indices (FIC) were approximately 0.50 or lower, indicative of additive or synergistic activity."}, "A. fumigatus [5]": {"test_system": "A. fumigatus", "test": "broth microdilution antifungal susceptibility / drug combination testing in vitro (NCCLS M27-T)", "format": "cell-based", "excerpt": "as §2, §3"}, "C. albicans [6]": {"test_system": "C. albicans", "test": "broth microdilution antifungal susceptibility / drug combination testing in vitro (NCCLS M27-T)", "format": "cell-based", "excerpt": "as §2, §3"}, "[7]": {"test": "drug interaction and efficacy studies against disseminated candidiasis, aspergillosis and cryptococcosis (overall findings)", "format": "in vivo", "description": "as §1"}, "[8]": {"conditions": "in vitro drug combination, clinical isolates, indicative of additive or synergistic activity"}, "[9]": {"conditions": "Compound I with AmB, sub-inhibitory concentrations"}},
  "data": [
    {"smiles": "CCC(C)CC(C)CCCCCCCCC(=O)N[C@H]1C[C@@H](O)[C@@H](NCCN)NC(=O)[C@@H]2[C@@H](O)CCN2C(=O)[C@H]([C@H](O)CCN)NC(=O)[C@H]([C@H](O)[C@@H](O)c2ccc(O)cc2)NC(=O)[C@@H]2C[C@@H](O)CN2C(=O)[C@H]([C@@H](C)O)NC1=O", "note": "(stereo partly drawn) [Compound I]", "values": [
      {"measurement": "survival", "setting": "A. fumigatus [1]", "value": "Significant improvement in survival"},
      {"measurement": "efficacy of combination versus single agents", "setting": "C. albicans [2]", "value": "more efficacious than either agent administered alone"},
      {"measurement": "antagonism of efficacy", "setting": "C. neoformans [3]; FCZ in combination with Compound I, cryptococcosis in mice", "value": "no antagonism of efficacy"},
      {"measurement": "effects on efficacy", "setting": "C. neoformans [3]; combinations of Compound I and FCZ at certain concentrations", "value": "Beneficial effects on efficacy"},
      {"measurement": "effect on activity of fluconazole (CFU numbers)", "setting": "C. neoformans [4]; Compound I combined with fluconazole 0.25, 0.50 and 1.0 μg/ml", "value": "significantly enhanced the activity of fluconazole"},
      {"measurement": "activity of combination therapy in vitro", "setting": "C. neoformans [4]; Compound I with AmB and FCZ, sub-inhibitory concentrations, strains of C. neoformans", "value": "enhanced activity"},
      {"measurement": "colony forming units (CFUs)", "setting": "C. neoformans [4]; amphotericin B 0.0075, 0.015 and 0.03 μg/ml combined with Compound I 4, 8 and 16 μg/ml", "value": "markedly reduced"},
      {"measurement": "Fractional inhibitory indices (FIC)", "setting": "C. neoformans [4]; [8]", "value": "≤ 0.50"},
      {"measurement": "antagonism between Compound I and AmB", "setting": "C. neoformans [4]; in vitro, clinical isolates", "value": "no antagonism"},
      {"measurement": "activity of combination therapy in vitro", "setting": "A. fumigatus [5]; [9]", "value": "enhanced activity"},
      {"measurement": "Fractional inhibitory indices (FIC)", "setting": "A. fumigatus [5]; [8]", "value": "≤ 0.50"},
      {"measurement": "antagonism between Compound I and AmB", "setting": "A. fumigatus [5]; in vitro, clinical isolates", "value": "no antagonism"},
      {"measurement": "activity of combination therapy in vitro", "setting": "C. albicans [6]; [9]", "value": "enhanced activity"},
      {"measurement": "Fractional inhibitory indices (FIC)", "setting": "C. albicans [6]; [8]", "value": "≤ 0.50"},
      {"measurement": "antagonism between Compound I and AmB", "setting": "C. albicans [6]; in vitro, clinical isolates", "value": "no antagonism"},
      {"measurement": "FIC values in vivo", "setting": "[7]; Compound I and AmB, suggesting additive or synergistic activity in vivo", "value": "approximately 0.50"},
      {"measurement": "adverse effects with combinations", "setting": "[7]; Compound I combined with either AmB or FCZ, at high, use or lower concentrations", "value": "no adverse effects"},
      {"measurement": "antagonism of efficacy", "setting": "[7]; either AmB or FCZ combined with Compound I", "value": "no antagonism of efficacy"}
    ]}
  ]
}
